Results reported in paper PMC6572996, “Silver(I) Complexes of the Pharmaceutical Agents Metronidazole and 4-Hydroxymethylpyridine: Comparison of Cytotoxic Profile for Potential Clinical Application” (Molecules, 2019).
Where two headings read alike, the source gives them in different places.

Assays:
[1] = test system: OVCAR-3 (ovarian) cell line; design: method as in PMID 18615197; details: 72 h; cited from earlier work
[2] = test system: HeLa (cervical) cell line; design: method as in PMID 18615197; details: 72 h; cited from earlier work
[3] = test system: murine fibroblasts (L929); design: method as in PMID 18364400; details: 24 h exposure; read-out: IC50, L929, MTT assay; cited from earlier work
[4] = test system: MB157 (breast) cell line; design: method as in PMID 18615197; details: 72 h; cited from earlier work
[5] = test system: NIH/3T3 cells; details: 24 h exposure; cited from earlier work
[6] = test system: HeLa cell lines; design: method as in PMID 19836347; details: cited from earlier work
[7] = test system: murine fibroblasts (L929); design: method as in PMID 18364400; details: 24 h exposure; read-out: IC50, L929, NRU assay; cited from earlier work
[8] = test system: H-ras 5RP7 cells; details: 24 h exposure; cited from earlier work
[9] = test system: A549 (lung) cells; details: 72 h exposure; cited from earlier work
[10] = test system: FaO cells; design: method as in doi:10.2478/v10213-012-0102-5; details: cited from earlier work
[11] = test system: HepG2 cells; design: method as in doi:10.2478/v10213-012-0102-5; details: cited from earlier work
[12] = Cytotoxicity over four assays in both cell lines; type: cell-based; details: mouse (Balb/c 3T3) and human (HepG2), Balb/c 3T3 clone A31 fibroblasts and HepG2 hepatoma cells, mostly greater than 50%, read-out: Viability of the cells at the highest concentrations used
Method: Data obtained from the measurement of the optical density in these assays were transformed to percentages in relation to the control group, considered to be 100% for the MTT, NRU, and TPC assays and 0% for the LDH assay (Figure 1).
The human hepatoma cell line (HepG2) was purchased from the American Type Culture Collection (ATCC HB-8065). These cells were cultured in Minimum Essential Medium Eagle (MEME) (ATCC). The murine fibroblast cell line (Balb/c 3T3 clone A31) (gift from Department of Swine Diseases of the National Veterinary Research Institute in Pulawy) was cultured in Dulbecco’s Modified Eagle’s Medium (DMEM) (ATCC). The media were supplemented with 10% BCS (Balb/c 3T3), 10% FBS (HepG2), 1% L-glutamine, and 1% antibiotic solution. The cells were maintained in 75 cm^2 cell culture flasks (Nunc, Roskilde, Denmark) in a humidified incubator, NuAire (Plymouth, MN, USA) at 37 °C, in an atmosphere of 5% CO2. The medium was refreshed every two or three days and the cells were trypsinized by 0.25% trypsin–0.02% EDTA after reaching 70–80% confluence. […]
The concentration ranges of compounds were chosen according to their solubility and their plasma level. […] Cytotoxicity was assessed after 72 h of exposure of the cells to the compounds. […]
The results of the tests were expressed as a mean ± SD. […] The IC50 values were calculated by GraphPad Prism 5 software (San Diego, CA, USA). […]

[13] = test system: IEC-6 cells; design: method as in PMID 20946968; details: 84.8 µM, 24 h exposure; cited from earlier work
[14] = test system: 10T1/2 cell line; design: method as in PMID 26828469; details: same observation as in this study; cited from earlier work
[15] = test system: MCF7 cells; design: method as in PMID 22832309; details: 48 h incubation, cited from earlier work

O=[N+]([O-])[O-].[Ag+] [Silver nitrate]
IC50 [1]: 35 µM
IC50 [2]: 50 µM
IC50 [3]: 3.57 µM
IC50 [4]: 5 µM
IC50 [5]: 12.3 µM
IC50 [6]: 2.89 µM
IC50 [7]: 2.55 µM
IC50 [8]: 6.75 µM
IC50 [9]: 13.5 µM

Cc1ncc([N+](=O)[O-])n1CCO [Metronidazole]
Cytotoxicity in FaO cells [10]: low cytotoxicity
Cytotoxicity in HepG2 cells [11]: low cytotoxicity
viability at 72 h [12]: > 50%
Inhibition of viability of IEC-6 cells [13]: 8%
Cytotoxicity in 10T1/2 cell line [14]: poorly cytotoxic
Inhibition of MCF7 cells ([15]; 250 µM): 30%
Cytotoxicity in MCF7 cells ([15]; concentration range 2.5 to 250 µM): not cytotoxic
